One assay concerns the target T1, Deacetylase, Histone 1 (Homo sapiens, UniProt Q13547).
T1 construct: host or cells: Insect Sf9 cells
Put plainly: Deacetylase, Histone 1 (PanLab). The format is biochemical. As to the method: (§1) The in vitro pharmacological studies were conducted by Eurofins PanLab (Taiwan) using the parameters shown in Table 13 with respect to appropriate literature references.

The next assay deals with T2, BRD4(2) (h) bromodomain (Homo sapiens, UniProt O60885).
T2 construct: Bromodomain
Description: Epigenetic binding assay, Bromodomain. As to conditions: for inhibition at 10 µM: read-out: % Inhibition of Control Specific Binding.

Assay [1] concerns the target PKBgamma/AKT3(h) (substrate histone H3 full length) (Homo sapiens, UniProt Q9Y243). Put plainly: Epigenetic enzyme assay, Kinases. The conditions noted are these: read-out: % Inhibition of Control Values. The format is biochemical.
Assay [2] deals with T3, Catechol O-methyltransferase (h) (Homo sapiens, UniProt P21964).
T3 sequence (P21964 1-271): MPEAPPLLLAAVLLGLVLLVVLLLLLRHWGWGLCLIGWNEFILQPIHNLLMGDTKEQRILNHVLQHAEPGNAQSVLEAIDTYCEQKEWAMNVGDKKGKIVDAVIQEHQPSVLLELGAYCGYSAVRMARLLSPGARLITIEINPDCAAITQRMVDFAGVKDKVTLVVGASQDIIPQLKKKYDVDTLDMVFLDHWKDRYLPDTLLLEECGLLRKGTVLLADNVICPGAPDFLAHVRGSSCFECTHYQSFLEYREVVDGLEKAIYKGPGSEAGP
Description: Epigenetic enzyme assay, Small molecule methyltransferases. The assay is classed as biochemical. As to conditions: read-out: % Inhibition of Control Values.

In a further assay the target is CREBBP(h) (Homo sapiens, UniProt Q92793). Description: Epigenetic enzyme assay, Histone acetyltransferases (HATs). As to conditions: for inhibition at 10 µM: read-out: % Inhibition of Control Values; for IC50: Table 11, inhibition/concentration-response curve. The assay is classed as biochemical.
Another assay has as its system L3MBTL1 MBT domain. Description: Epigenetic binding assay, MBT domain. The conditions noted are these: 10 μM.
A further assay has as its target USP 10 (h) (Homo sapiens, UniProt Q14694). Description: Epigenetic enzyme assay, Ubiquitin modifying enzymes. As to conditions: 10 μM; read-out: % Inhibition of Control Values. The assay is classed as biochemical.
Another assay addresses T4, Sirtuin 7 (h) (Homo sapiens, UniProt Q9NRC8).
T4 sequence (Q9NRC8 1-400): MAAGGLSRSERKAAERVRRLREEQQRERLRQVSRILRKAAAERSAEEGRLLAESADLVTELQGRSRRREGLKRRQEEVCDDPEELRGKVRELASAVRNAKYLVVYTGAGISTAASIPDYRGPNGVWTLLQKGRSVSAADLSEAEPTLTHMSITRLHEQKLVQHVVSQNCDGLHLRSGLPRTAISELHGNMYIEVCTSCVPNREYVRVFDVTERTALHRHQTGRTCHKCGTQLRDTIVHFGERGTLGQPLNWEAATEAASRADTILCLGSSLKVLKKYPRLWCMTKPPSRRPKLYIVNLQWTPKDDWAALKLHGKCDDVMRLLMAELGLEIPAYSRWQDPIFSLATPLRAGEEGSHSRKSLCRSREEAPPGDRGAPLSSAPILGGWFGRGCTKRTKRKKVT
Description: Epigenetic enzyme assay, Sirtuins. The assay is classed as biochemical. The conditions noted are these: 10 μM; read-out: % Inhibition of Control Values.

A further assay concerns the target PRMT1 (h) (Homo sapiens, UniProt Q99873). Description: Epigenetic enzyme assay, Methyltransferases (MTs). The format is biochemical. As to conditions: read-out: % Inhibition of Control Values.
A further assay concerns the target T5, PCAF (h) bromodomain (Homo sapiens, UniProt Q92831).
T5 construct: Bromodomain
T5 sequence (Q92831 723-827 limits assumed): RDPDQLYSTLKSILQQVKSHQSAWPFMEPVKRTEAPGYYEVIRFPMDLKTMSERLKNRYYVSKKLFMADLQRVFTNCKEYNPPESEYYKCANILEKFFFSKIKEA
Put plainly: Epigenetic binding assay, Bromodomain. As to conditions: 10 μM; read-out: % Inhibition of Control Specific Binding.

Another assay has as its target PRMT6 (h) (Homo sapiens, UniProt Q96LA8). Put plainly: Epigenetic enzyme assay, Methyltransferases (MTs). As to conditions: read-out: % Inhibition of Control Values. The format is biochemical.
Another assay deals with T6, SETD8 (h) (Homo sapiens, UniProt Q9NQR1).
T6 sequence (Q9NQR1 1-393): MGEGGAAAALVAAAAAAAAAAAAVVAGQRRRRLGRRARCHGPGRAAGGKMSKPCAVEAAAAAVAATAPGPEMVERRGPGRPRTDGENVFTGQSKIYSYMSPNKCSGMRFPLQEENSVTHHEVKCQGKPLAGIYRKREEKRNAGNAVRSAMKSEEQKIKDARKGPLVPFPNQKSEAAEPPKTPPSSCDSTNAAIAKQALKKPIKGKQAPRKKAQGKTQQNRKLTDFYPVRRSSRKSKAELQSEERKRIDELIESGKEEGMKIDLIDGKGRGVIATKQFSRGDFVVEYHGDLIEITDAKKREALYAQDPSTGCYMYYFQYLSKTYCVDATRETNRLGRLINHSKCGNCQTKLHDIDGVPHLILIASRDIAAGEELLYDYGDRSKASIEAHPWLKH
Put plainly: Epigenetic enzyme assay, Methyltransferases (MTs). The assay is classed as biochemical. As to conditions: 10 μM; read-out: % Inhibition of Control Values.

In a further assay the test system is RKO-AS45-1. Description: OncoPanel cell proliferation assay (10-day). The assay is classed as cell-based, human. The conditions noted are these: for EC50 / GI50 / IC50: Homo sapiens, RKOAS451, RKO-AS45-1, Colon; for EC50: read-out: Cell Count EC50; for GI50: read-out: Cell Count GI50; for IC50: read-out: Cell Count IC50.
The target of assay [3] is Aurora B (h) (substrate histone H3 full length) (Homo sapiens, UniProt Q96GD4). Put plainly: Epigenetic enzyme assay, Kinases. The assay is classed as biochemical. The conditions noted are these: read-out: % Inhibition of Control Values.
Chain of Aurora B (h) (substrate histone H3 full length) (Q96GD4 whole entry): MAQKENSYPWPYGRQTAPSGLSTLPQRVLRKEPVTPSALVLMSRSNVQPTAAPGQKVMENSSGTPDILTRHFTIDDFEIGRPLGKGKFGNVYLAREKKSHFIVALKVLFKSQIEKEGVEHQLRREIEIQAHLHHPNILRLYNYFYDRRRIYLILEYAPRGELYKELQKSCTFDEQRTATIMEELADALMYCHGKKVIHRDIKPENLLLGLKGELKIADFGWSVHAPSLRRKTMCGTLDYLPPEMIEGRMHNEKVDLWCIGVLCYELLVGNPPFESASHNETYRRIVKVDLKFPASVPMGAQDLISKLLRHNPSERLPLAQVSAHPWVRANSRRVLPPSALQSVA
Assay [4] deals with EZH2/EED/SUZ12 (h) (PRC2 complex) (Homo sapiens, UniProt Q15910). Put plainly: Epigenetic enzyme assay, Methyltransferases (MTs). The assay is classed as biochemical. As to conditions: read-out: % Inhibition of Control Values.
Chain of EZH2/EED/SUZ12 (h) (PRC2 complex) (Q15910 whole entry): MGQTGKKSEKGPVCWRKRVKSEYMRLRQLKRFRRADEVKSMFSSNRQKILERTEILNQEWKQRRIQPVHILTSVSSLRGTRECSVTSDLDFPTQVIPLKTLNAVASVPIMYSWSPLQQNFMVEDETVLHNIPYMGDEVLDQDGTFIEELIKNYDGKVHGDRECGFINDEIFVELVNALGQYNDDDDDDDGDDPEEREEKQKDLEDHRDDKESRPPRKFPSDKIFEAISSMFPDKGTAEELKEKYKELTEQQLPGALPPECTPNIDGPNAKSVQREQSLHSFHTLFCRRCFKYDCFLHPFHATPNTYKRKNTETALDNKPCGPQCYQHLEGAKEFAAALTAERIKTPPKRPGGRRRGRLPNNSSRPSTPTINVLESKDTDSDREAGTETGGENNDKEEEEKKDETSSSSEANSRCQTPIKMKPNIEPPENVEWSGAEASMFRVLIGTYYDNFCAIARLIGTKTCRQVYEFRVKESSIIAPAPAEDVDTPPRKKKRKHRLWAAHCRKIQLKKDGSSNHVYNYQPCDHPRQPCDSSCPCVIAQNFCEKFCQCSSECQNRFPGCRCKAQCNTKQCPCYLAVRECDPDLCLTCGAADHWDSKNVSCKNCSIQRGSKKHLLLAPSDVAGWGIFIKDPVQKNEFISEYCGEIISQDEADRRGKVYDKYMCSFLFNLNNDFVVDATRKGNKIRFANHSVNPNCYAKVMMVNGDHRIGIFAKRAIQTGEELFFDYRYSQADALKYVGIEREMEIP
Chain of EZH2/EED/SUZ12 (h) (PRC2 complex) (O75530 whole entry partner): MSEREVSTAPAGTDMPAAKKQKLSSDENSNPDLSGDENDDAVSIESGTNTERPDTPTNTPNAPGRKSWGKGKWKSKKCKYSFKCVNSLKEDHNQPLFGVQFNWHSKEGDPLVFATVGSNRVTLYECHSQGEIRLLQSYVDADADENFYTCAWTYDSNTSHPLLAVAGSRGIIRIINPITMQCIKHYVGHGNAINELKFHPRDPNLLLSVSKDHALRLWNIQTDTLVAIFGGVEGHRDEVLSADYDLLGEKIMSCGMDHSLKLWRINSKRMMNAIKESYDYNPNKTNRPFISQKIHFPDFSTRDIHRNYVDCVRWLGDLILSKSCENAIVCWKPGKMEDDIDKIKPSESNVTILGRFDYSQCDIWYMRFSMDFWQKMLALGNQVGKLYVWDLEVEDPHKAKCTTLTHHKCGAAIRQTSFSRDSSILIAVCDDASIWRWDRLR
Chain of EZH2/EED/SUZ12 (h) (PRC2 complex) (Q15022 whole entry partner): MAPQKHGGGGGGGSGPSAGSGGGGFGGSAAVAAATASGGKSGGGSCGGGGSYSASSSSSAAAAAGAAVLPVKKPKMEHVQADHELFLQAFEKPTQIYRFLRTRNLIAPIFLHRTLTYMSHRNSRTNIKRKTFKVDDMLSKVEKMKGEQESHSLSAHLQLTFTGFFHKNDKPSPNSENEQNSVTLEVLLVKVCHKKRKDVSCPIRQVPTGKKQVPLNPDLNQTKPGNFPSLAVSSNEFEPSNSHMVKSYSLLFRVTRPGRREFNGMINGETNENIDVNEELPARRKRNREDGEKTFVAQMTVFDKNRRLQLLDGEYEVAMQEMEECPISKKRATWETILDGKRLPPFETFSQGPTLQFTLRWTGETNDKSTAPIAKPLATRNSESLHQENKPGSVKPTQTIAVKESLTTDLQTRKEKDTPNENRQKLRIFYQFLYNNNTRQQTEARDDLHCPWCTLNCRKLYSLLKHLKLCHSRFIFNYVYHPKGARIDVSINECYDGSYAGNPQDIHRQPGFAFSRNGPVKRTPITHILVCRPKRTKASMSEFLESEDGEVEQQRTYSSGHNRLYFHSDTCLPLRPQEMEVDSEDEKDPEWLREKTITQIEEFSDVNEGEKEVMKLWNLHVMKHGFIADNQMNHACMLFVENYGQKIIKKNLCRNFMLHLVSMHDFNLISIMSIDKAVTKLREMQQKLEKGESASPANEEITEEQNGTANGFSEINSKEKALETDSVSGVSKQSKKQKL
In another assay the target is T7, BRD3(2) (h) bromodomain (Homo sapiens, UniProt Q15059).
T7 construct: Bromodomain
T7 sequence (Q15059 306-415 limits assumed): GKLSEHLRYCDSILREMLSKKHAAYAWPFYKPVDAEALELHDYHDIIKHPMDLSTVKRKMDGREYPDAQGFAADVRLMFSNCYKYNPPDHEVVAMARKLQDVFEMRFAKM
Put plainly: Epigenetic binding assay, Bromodomain. The conditions noted are these: 10 μM; read-out: % Inhibition of Control Specific Binding.

The target in the next assay is T8, Angiotensin AT2 (Homo sapiens, UniProt P50052).
T8 construct: expressed in transfected cells; host or cells: CHO-K1 cells
T8 sequence (P50052 1-363): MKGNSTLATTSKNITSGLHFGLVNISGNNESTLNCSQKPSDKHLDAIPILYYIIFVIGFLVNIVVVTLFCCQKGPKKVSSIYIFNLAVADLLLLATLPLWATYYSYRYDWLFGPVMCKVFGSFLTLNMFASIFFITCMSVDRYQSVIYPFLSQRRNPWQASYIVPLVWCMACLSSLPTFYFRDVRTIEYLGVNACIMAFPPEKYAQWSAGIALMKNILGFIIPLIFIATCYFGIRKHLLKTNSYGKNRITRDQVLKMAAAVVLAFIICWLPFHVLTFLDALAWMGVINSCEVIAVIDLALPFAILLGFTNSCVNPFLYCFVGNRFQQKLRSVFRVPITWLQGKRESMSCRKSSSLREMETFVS
Put plainly: Angiotensin AT2 radio ligand binding. The conditions noted are these: assay year 2015, read-out: % Control Response. As to the method:
as §1

Chain of PRMT6 (h) (Q96LA8 whole entry): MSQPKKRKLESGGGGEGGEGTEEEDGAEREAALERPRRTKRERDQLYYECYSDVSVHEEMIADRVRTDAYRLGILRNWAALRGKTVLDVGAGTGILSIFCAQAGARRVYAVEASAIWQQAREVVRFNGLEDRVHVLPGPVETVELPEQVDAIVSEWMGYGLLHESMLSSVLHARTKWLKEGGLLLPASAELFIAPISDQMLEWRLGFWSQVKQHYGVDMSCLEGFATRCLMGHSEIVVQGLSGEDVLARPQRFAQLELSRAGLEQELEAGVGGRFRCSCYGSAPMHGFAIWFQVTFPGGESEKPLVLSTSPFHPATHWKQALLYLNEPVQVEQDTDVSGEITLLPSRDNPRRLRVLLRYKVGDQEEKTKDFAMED
T1 sequence (Q13547 whole entry): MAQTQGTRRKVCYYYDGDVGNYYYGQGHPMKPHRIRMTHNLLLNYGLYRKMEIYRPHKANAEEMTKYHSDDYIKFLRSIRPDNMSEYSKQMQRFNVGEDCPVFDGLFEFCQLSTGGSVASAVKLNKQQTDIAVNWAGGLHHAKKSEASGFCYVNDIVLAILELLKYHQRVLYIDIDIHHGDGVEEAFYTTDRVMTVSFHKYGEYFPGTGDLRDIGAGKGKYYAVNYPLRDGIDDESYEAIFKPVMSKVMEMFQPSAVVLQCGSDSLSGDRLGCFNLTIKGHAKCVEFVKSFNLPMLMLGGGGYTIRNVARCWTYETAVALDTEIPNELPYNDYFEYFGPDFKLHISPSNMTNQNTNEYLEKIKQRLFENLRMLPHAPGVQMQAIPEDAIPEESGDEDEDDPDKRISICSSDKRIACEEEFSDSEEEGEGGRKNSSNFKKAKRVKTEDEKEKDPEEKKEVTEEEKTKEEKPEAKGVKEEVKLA
Chain of PKBgamma/AKT3(h) (substrate histone H3 full length) (Q9Y243 whole entry): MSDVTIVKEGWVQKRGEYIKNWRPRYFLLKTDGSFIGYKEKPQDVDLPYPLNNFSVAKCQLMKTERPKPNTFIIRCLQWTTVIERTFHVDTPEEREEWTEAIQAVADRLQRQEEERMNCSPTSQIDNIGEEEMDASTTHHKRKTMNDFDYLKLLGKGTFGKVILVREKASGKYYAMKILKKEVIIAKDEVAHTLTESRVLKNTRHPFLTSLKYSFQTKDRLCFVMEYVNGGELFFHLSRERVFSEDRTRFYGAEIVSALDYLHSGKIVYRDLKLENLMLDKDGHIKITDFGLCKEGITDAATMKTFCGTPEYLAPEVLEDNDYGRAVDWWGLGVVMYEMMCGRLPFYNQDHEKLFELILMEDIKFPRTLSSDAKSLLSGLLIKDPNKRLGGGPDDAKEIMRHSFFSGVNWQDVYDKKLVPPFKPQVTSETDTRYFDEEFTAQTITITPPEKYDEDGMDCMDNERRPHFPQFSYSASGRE
Chain of USP 10 (h) (Q14694 whole entry): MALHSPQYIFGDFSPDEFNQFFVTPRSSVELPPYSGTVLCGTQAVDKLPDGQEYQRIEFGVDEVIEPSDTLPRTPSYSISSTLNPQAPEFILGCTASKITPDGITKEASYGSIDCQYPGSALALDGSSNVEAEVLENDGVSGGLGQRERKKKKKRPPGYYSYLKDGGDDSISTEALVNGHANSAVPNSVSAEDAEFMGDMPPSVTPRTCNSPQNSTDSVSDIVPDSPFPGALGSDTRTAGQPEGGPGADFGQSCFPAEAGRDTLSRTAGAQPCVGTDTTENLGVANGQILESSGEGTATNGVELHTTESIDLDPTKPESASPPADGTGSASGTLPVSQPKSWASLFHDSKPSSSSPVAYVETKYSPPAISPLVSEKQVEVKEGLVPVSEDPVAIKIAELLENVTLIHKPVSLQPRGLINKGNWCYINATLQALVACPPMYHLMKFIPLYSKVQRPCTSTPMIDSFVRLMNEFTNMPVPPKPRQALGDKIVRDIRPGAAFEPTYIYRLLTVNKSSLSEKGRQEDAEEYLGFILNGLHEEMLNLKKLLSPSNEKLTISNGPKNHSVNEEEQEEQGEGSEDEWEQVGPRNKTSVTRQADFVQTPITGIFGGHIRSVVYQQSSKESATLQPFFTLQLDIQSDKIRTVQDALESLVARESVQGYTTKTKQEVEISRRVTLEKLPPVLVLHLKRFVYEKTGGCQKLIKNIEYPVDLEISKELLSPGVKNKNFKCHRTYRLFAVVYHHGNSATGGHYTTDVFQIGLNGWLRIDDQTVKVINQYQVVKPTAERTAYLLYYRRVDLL
Chain of PRMT1 (h) (Q99873 whole entry): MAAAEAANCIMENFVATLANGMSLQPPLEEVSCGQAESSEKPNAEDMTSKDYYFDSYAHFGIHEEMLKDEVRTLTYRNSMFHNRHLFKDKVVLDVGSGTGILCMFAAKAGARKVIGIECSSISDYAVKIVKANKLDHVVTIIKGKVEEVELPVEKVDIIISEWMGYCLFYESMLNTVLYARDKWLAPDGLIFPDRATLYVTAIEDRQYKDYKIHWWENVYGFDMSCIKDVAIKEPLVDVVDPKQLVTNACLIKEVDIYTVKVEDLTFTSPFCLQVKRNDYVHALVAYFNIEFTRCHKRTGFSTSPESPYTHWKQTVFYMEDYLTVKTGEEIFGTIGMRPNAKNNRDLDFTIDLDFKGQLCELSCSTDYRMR

Regarding `CC(C)=CCC[C@@H]1C(O)Oc2c(C)cc(O)c3c2[C@H]1CC[C@H]3C` (stereo partly shown) [Compound 2, 5,18-epoxyserrulat-14-en-8,18-diol], the % control response at 10 µM on Deacetylase, Histone 1 (assay year 2014) was 23%; at Deacetylase, Histone 1 (assay year 2015) it was -18%. For the same molecule, the inhibition at 10 µM was 16% at BRD4(2) (h) bromodomain (10 μM); -7% in assay [1]; 1% in assay [2]; 78% at CREBBP(h); 2% on USP 10 (h); -2% at Sirtuin 7 (h). Further, the inhibition at 10 µM at PRMT1 (h) was 26%; on PCAF (h) bromodomain, 16%; on PRMT6 (h) it was 57%; at SETD8 (h) it was 25%; in assay [3], 4%; in [4], 26%. Besides, the inhibition at 10 µM at BRD3(2) (h) bromodomain is 25%. Moreover, the IC50 on CREBBP(h) was determined as 6.1 µM; in the assay on RKO-AS45-1, 9.64 µM. Moreover, the “% Inhibition of Control Specific Binding” value in the assay with L3MBTL1 MBT domain stood at 61%. The concentration for a half-maximal effect (EC50) in the assay with RKO-AS45-1 is 9.64 µM. Further, the 50% growth inhibitory concentration (GI50) in the assay with RKO-AS45-1 worked out at 9.62 µM. In addition, on Angiotensin AT2, the remaining activity at 10 µM is 18%.
Take `CC(C)=CCC[C@@H]1COc2c(C)cc(O)c3c2[C@H]1CC[C@H]3C` [Compound 3, 5,18-epoxy-8-hydroxyserrulat-14-ene]: the % control response at 10 µM on Deacetylase, Histone 1 (assay year 2015) is -26%. For the same molecule, the inhibition at 10 µM on BRD4(2) (h) bromodomain (10 μM) is 13%; in assay [1], 3%; in [2] it was 0%; on CREBBP(h) it was 43%; on USP 10 (h) it was -7%; at Sirtuin 7 (h) it was -8%. Further, the inhibition at 10 µM is -1% on PRMT1 (h); 3% at PCAF (h) bromodomain; 34% on PRMT6 (h); -10% at SETD8 (h); -1% in assay [3]; 4% in assay [4]. Also, on BRD3(2) (h) bromodomain, the inhibition at 10 µM came out at 1%. For the same molecule, in the assay with L3MBTL1 MBT domain, the “% Inhibition of Control Specific Binding” value was 59%. In addition, the remaining activity at 10 µM on Angiotensin AT2 was 9%.
As to `CC(C)=CCC[C@H](CO)[C@@H]1CC[C@@H](C)c2c1cc(C)c(O)c2O` [Compound 1, 7,8,18-trihydroxyserrulat-14-ene], the % control response at 10 µM is 17% at Deacetylase, Histone 1 (assay year 2014) and -27% at Deacetylase, Histone 1 (assay year 2015). Besides, the “% Inhibition of Control Specific Binding” value at BRD4(2) (h) bromodomain (10 μM) is recorded as “significant inhibitory activity”; in the assay on L3MBTL1 MBT domain, 41%. Further, the inhibition at 10 µM on BRD4(2) (h) bromodomain (10 μM) was 76%; in assay [1] it was 5%; in [2], 6%; on CREBBP(h) it was 74%; on USP 10 (h), 7%; on Sirtuin 7 (h) it was 7%. For the same molecule, the inhibition at 10 µM on PRMT1 (h) came out at 16%; on PCAF (h) bromodomain, 37%; at PRMT6 (h) it was 49%; on SETD8 (h), 4%; in assay [3], 6%; in assay [4], 19%. Further, on BRD3(2) (h) bromodomain, the inhibition at 10 µM worked out at 35%. Moreover, the half-inhibitory concentration (IC50) on BRD4(2) (h) bromodomain (Table 9, inhibition/concentration-response curve) worked out at 5.6 µM; on CREBBP(h), 3.9 µM; in the assay with RKO-AS45-1, 1.5 µM. Also, the “Relative cell count (%) Mean” value in the assay with RKO-AS45-1 (3.00E+00 microM) was found to be 7.6%; in the assay with RKO-AS45-1 (3.00E+01 microM), 0.1%; with RKO-AS45-1 (3.01E−01 microM), 90.0%; in the assay on RKO-AS45-1 (3.01E−02 microM), 86.2%; in the assay with RKO-AS45-1 (3.02E−03 microM), 83.7%; in the assay with RKO-AS45-1 (9.49E+00 microM), 0.1%. The “Relative cell count (%) Mean” value was determined as 72.1% in the assay with RKO-AS45-1 (9.51E−01 microM), 80.5% in the assay on RKO-AS45-1 (9.52E−02 microM), 88.3% in the assay with RKO-AS45-1 (9.53E−03 microM) and 95.4% in the assay on RKO-AS45-1 (9.55E−04 microM). For the same molecule, the concentration for a half-maximal effect (EC50) in the assay with RKO-AS45-1 is 1.5 µM. Moreover, in the assay on RKO-AS45-1, the GI50 turned out to be 1.5 µM. Also, at Angiotensin AT2, the remaining activity at 10 µM was 29%.
On to `CC(C)=CCC[C@H](C)[C@@H]1CC[C@@H](C)c2c1cc(C)c(O)c2O` [Compound 4, 7,8-dihydroxyserrulat-14-ene], for which, in the assay with RKO-AS45-1, the concentration for a half-maximal effect (EC50) stood at 12.8 µM, the GI50 was determined as 12.8 µM and the IC50 worked out at 12.8 µM.

What is called inhibition is the change of the read-out against control, counted positive when it falls. For orientation: IC50 means the concentration needed to halve the response being measured. For orientation: EC50 means the concentration that produces a half-maximal response. As a reminder, the GI50 is the concentration that inhibits growth by half.

Values taken from US11331299B2, “Medicinal use of serrulatane diterpenes” (The University of Sydney, priority 2016, dated 2022).
